The results in this text go back to US7094869B2, “Low molecular weight peptidomimetic growth hormone secretagogues” (Genentech, Inc., priority 1994, dated 2006).

Molecules are shown by their SMILES. Like-named read-outs stand apart in the source and are kept apart here.

For one test, the target named is rat pituitary cells (Rattus norvegicus, UniProt O08725). In outline: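 Primary rat anterior pituitary cells, cultured three days in DME low glucose/10% FBS, were washed, pre-incubated twice for 15 min, then challenged 15 min with test compounds (DMSO ≤0.1%) at 37 °C. Released GH was measured by two-site ELISA; EC50 came from 4-parameter fits, mean of three to four independent determinations.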

The subject of another test is growth hormone secretion. The experiment in a line: GHRP induced growth hormone secretion, intravenous administration (Rat IV). The class given is in vivo. In outline:
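Female Sprague Dawley rats (24-30 days, 50-90 g) under intraperitoneal pentobarbitone received graded intravenous tail-vein peptide doses in pH 5.0 sodium acetate/mannitol buffer 20 min post-anaesthesia. Blood by cardiac puncture 10 min after dosing; serum GH measured by rat GH ELISA in duplicate.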

rat pituitary cells, sequence (O08725 whole entry): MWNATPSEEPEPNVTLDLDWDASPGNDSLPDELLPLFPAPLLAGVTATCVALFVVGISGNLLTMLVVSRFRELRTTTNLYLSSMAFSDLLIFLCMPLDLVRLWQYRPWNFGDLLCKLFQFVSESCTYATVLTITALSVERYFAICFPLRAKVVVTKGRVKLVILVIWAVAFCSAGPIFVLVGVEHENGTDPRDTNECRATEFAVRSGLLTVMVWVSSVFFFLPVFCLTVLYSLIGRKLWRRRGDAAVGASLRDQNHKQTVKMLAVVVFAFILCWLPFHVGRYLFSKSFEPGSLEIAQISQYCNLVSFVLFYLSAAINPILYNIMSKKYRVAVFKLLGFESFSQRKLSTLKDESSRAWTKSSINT

As a reminder, the EC50 is the concentration at which the effect is half-maximal. With `NCCCC[C@H](NC(=O)[C@H](Cc1ccccc1)NC(=O)[C@@H](Cc1ccc2ccccc2c1)NC(=O)[C@@H](Cc1ccc2ccccc2c1)NC(=O)C1CCNCC1)C(N)=O` [(inip) b b F K amide, (inip)-DβNal-DβNal-Phe-Lys-amide], at rat pituitary cells (15 min exposure), the “concentration at which GH release is significantly (P<0.05) increased” value is given as 0.3 nM and the “concentration by which GH release reaches a plateau” value was 1 nM. Besides, on rat pituitary cells (ratio of pit cell EC50s), the “fold more potent than GHRP-6” value was “over 30 fold”. Besides, at rat pituitary cells (read-out: EC50 of the representative GH dose response, single representative experiment, 15 min exposure), the EC50 came to 160 pM. For the same molecule, the EC50 at rat pituitary cells (read-out: mean EC50, mean ± SE of independent EC50s) came out at 180 ± 40 pM. Moreover, the “RAT IV ED50” value with growth hormone secretion (Table III, iv injection, serum GH 10 min after injection) is 0.2 µg. Besides, in the test on growth hormone secretion (acute intravenous injection, 80 gram rats, doses 1.0, 0.2, 0.04 μg/injection), the “ED50 for induction of GH secretion” value is given as 0.2 μg/rat.
